According to patent US5750782A, “Nitroaniline derivatives and their use as anti-tumour agents” (priority 1996, dated 1998):
Where two headings read alike, the source gives them in different places.

What was measured:
[1] = product of CB 1954 reduction by Walker cell enzyme; cited from earlier work
Walker tumour cells = conditions: in vivo or in vitro; cited from earlier work
other tumours = conditions: cited from earlier work
EC.1.6.99.2 = conditions: Walker cell enzyme; cited from earlier work
[2] = system: bacterial nitroreductase enzymes; conditions: PCT/GB92/01947; cited from earlier work
AA8 = assay: Growth inhibition (IC50), AA8 cells, aerobic; type: cell-based; conditions: air, 18 h exposure
Description: (§1) Growth inhibition studies were performed as described in detail elsewhere (W.R. Wilson, R.F. Anderson and W.A Denny. J Med. Chem., 1989, 32, 23; G.J. Finlay, B.C. Baguley and W.R. Wilson. Anal Biochem., 1984, 139, 172.), using 200 viable AA8 or 300 viable UV4 cells plus 5000 lethally-irradiated AA8 feeder cells per well in 96-well tissue culture dishes. AA8 and UV4 cells were maintained in logarithmic-phase growth in […] tissue culture flasks with subculture twice weekly by trypsinization. The growth medium was antibiotic-free α-MEM with 10% v/v heat-inactivated ([…], 40 min) fetal calf serum. Doubling times were approximately 14h for AA8 and 15h for UV4 cells.

UV4 = assay: Growth inhibition (IC50), UV4 cells, aerobic; type: cell-based; conditions: air, 18 h exposure
Description: as §1

AA8 and UV4 cell lines = assay: Ratio of IC50 values against AA8 and UV4 cell lines (HFair); type: cell-based; conditions: 18 h exposure
Description: as §1
Ratio of IC50 values for a compound after exposure as detailed above against AA8 and UV4 cell lines (HF=IC50 (AA8)/IC50 (UV4)).

UV4 cells = assay: Clonogenic assay, UV4 cells (CT10), aerobic and hypoxic; type: cell-based
Excerpt: The product (in μM-hr) of the drug concentration times the exposure time to reduce cell survival to 10% of control values in the clonogenic assay.
Ratio of CT10 values after exposure of UV4 cells as detailed above under either aerobic (air) or hypoxic (N2) conditions (=aerobic CT10 /hypoxic CT10).

UV4 cell line = assay: Ratio of IC50 values against UV4 cell line in presence and absence of E. coli nitroreductase enzyme NTR-2; type: cell-based; conditions: air, ratio of IC50 in presence and absence of E. coli nitroreductase NTR-2, 1080 min
Description: as §1
Ratio of IC50 values for a compound after exposure as detailed above against the UV4 cell line in the presence and absence of the E. coli nitroreductase enzyme NTR-2.

E. coli nitroreductase = molecular target: T1, E. coli nitroreductase (Escherichia coli, UniProt P38489); assay: Drug reduction by the E. coli nitroreductase; type: biochemical; conditions: 120 min
T1 sequence (P38489 1-217): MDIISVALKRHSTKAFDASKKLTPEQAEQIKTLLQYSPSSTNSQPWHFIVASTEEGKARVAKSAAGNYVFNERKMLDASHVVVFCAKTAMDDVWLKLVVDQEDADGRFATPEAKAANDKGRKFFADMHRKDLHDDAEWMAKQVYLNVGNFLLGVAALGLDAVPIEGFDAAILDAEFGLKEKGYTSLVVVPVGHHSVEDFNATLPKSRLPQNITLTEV

V79 cells [3] = assay: Survival of V79 cells in the presence of the B. amyloliquifaciens nitroreductase; type: cell-based; conditions: 2 h, 37° C
Description: The effect of SN23862 on the survival of V79 cells in the preence of the B. amyloliquifaciens nitroreductase. All treatments were for 2 hours at 37° C. and the cells were then plated out for their resulting colony forming ability. […] The initial cell density was 2×10^5 /mL.

[4] = molecular target: T2, B. amyloliquifaciens nitroreductase (Bacillus amyloliquefaciens, UniProt Q8VSR5); assay: Drug reduction by the B. amyloliquifaciens nitroreductase; type: biochemical; conditions: 120 min
T2 sequence (Q8VSR5 1-174): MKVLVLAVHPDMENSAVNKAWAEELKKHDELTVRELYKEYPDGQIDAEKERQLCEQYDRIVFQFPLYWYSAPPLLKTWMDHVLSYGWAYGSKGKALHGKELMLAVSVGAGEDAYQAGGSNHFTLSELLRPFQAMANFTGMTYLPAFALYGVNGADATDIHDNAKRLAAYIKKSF
Description: The nitroreductase concentration was 7.45 μg/ml and NADII was ised as a co-factor.

MAWI Cells = assay: Survival of Mawi cells in the presence of the E. coli nitroreductase: A5B7 F(ab)2 conjugate; type: cell-based; conditions: 2 h, 37° C
Description: (§2) The conjugate concentration was 81 μg/ml (euivalent to 5.2 μg/ml nitroreductase) and NADII was used as a co-factor. […] No attempt was made to remove unbound conjugate.

V79 cells [5] = assay: Survival of V79 cells in the presence of the E. coli nitroreductase: A5B7 F(ab)2 conjugate; type: cell-based; conditions: 2 h, 37° C
Description: as §2

[6] = molecular target: T3, E. coli nitroreductase: A5B7 F(ab)2 conjugate (Escherichia coli, UniProt P38489); assay: Drug reduction by the E. coli nitroreductase: A5B7 F(ab)2 conjugate; type: biochemical; conditions: 120 min
T3 construct: A5B7 F(ab)2 antibody fragment (conjugate)
T3 sequence (P38489 1-217): T1 sequence (P38489 1-217)
Description: as §2

AA8 cells = assay: Radiosensitisation of hypoxic AA8 cells, gamma irradiation; type: cell-based
Description: The radiosensitising efficiency of compound 1 has been assessed in stirred suspensions of AA8 cells under hypoxie conditions using gamma irradiation (cobalt 60) at a dose rate of 2.2 Gy/min at 37° C. Drug and cells were mixed under hypoxic conditions 30 min before irradiation.

[7] = system: bacterial nitroreductase enzymes; assay: Reductive activation by bacterial nitroreductase enzymes; type: biochemical, Escherichia coli and Bacillus amyloliquifaciens; conditions: Examples 1 to 3
V79 cells [8] = conditions: 2 h, 37° C
Description: (§3) The nitroreductase concentration was 2 μg/ml and NADH was used as a co-factor. The initial cell density was 2×10^5 /mL.

V79 cells [9] = assay: Survival of V79 cells in the presence of the E. coli nitroreductase; conditions: hamster, 2 h
Description: as §3

[10] = +CG (81 μg/ml) + SN23862 + 500 μM NADH

Compound: NC(=O)c1cc(N2CC2)c(NO)cc1[N+](=O)[O-] [5-(aziridin-1-yl)-2-nitro-4-hydroxylamino-benzamide]
- anti-tumour activity [1]: active anti-tumour agent

Compound: NC(=O)c1cc(N2CC2)c([N+](=O)[O-])cc1[N+](=O)[O-] [CB 1954, 5-(aziridin-1-yl)-2,4-dinitrobenzaride]
- activity against the Walker tumour cells (Walker tumour cells): considerable activity
- activity against other tumours (other tumours): virtually inactive
- reduction of the 4-nitro group to the corresponding hydroxylamine (EC.1.6.99.2): ability to reduce the 4-nitro group of CB 1954
- conversion into an active anti-tumour agent by bacterial nitroreductases [2]: capable of converting CB 1954 into an active anti-tumour agents

Compound: NC(=O)c1cc(N(CCCl)CCCl)c([N+](=O)[O-])cc1[N+](=O)[O-] [Compound 1, 5-[N,N-bis(2-chloroethyl)amino]-2,4-diritrobenzamide]
- IC50 (AA8): 468 µM
- IC50 (UV4): 109 µM
- HF (air) = IC50 (AA8)/IC50 (UV4) (AA8 and UV4 cell lines): 6.8
- CT10 ratio (air/N2) (UV4 cells; UV4 cells, aerobic CT10/hypoxic CT10): 58
- CT10 (UV4) (UV4 cells; air, concentration x time to reduce UV4 cell survival to 10% of control): 2925 μM-h
- hypoxia-selective cytotoxicity (UV4 cells; conclusion in words): hypoxia-selective cytotoxin
- HF (NR-2) (UV4 cell line): 73.5
- % DRUG REDUCTION (E. coli nitroreductase; +50 μM SN23862): < 1.0%
- % DRUG REDUCTION (E. coli nitroreductase; +NADH + SN23862): < 1.0%
- % DRUG REDUCTION (E. coli nitroreductase; +NR + 50 μM SN23862): < 1.0%
- % DRUG REDUCTION (E. coli nitroreductase; +NR + SN23862 + 500 μM NADH): 95%
- % SURVIVAL (V79 cells [3]; +50 μM SN23862): 110%
- % SURVIVAL (V79 cells [3]; +BA (7.45 μg/ml) + 50 μM SN23862): 110%
- % SURVIVAL (V79 cells [3]; +BA (7.45 μg/ml) + SN23862 + 500 μM NADH): 6.0%
- % SURVIVAL (V79 cells [3]; +NADH + SN23862): 115%
- % DRUG REDUCTION ([4]; +50 μM SN23862): < 1.0%
- % DRUG REDUCTION ([4]; +BA + 50 μM SN23862): < 1.0%
- % DRUG REDUCTION ([4]; +BA + SN23862 + 500 μM NADH): > 95%
- % DRUG REDUCTION ([4]; +NADH + SN23862): < 1.0%
- % SURVIVAL MAWI Cells (MAWI Cells; +50 μM SN23862): 90.9%
- % SURVIVAL MAWI Cells (MAWI Cells; +CG (81 μg/ml) + 50 μM SN23862): 94.6%
- % SURVIVAL MAWI Cells (MAWI Cells; [10]): 0.014%
- % SURVIVAL MAWI Cells (MAWI Cells; +NADH + SN23862): 93.1%
- % SURVIVAL V79 Cells (V79 cells [5]; +50 μM SN23862): 94.3%
- % SURVIVAL V79 Cells (V79 cells [5]; +CG (81 μg/ml) + 50 μM SN23862): 73.5%
- % SURVIVAL V79 Cells (V79 cells [5]; [10]): 0.003%
- % SURVIVAL V79 Cells (V79 cells [5]; +NADH + SN23862): 80.4%
- % DRUG REDUCTION ([6]; +50 μM SN23862): < 1.0%
- % DRUG REDUCTION ([6]; +CG + 50 μM SN23862): < 1.0%
- % DRUG REDUCTION ([6]; +CG + SN23862 + 500 μM NADH): > 99%
- % DRUG REDUCTION ([6]; +NADH + SN23862): < 1.0%
- drug toxicity at this extent of sensitisation (AA8 cells; at C1.6, hypoxic AA8 cells, FIG. 1): absence of drug toxicity
- Radiosensitisation of hypoxic cells (AA8 cells; hypoxic AA8 cells, FIG. 1): Radiosensitisation of hypoxic cells was observed
- C1.6 (concentration for an enhancement ratio of 1.6) (AA8 cells; hypoxic, 10% survival, cobalt 60, 2.2 Gy/min, 37° C, drug 30 min before irradiation): approximately 100 μM
- reductive activation by bacterial nitroreductase enzymes [7]: reductively activated by bacterial nitroreductase enzymes
- % SURVIVAL (V79 cells [8]; +50 μM SN23862): 100%
- % SURVIVAL (V79 cells [8]; +NADH + SN23862): 100%
- % SURVIVAL (V79 cells [8]; +NR (2 μg/ml) + 50 μM SN23862): 99%
- % SURVIVAL (V79 cells [8]; +NR (2 μg/ml) + SN23862 + 500 μM NADH): 0.007%

Compound: NC(=O)C1=CN([C@@H]2O[C@H](COP(=O)(O)OP(=O)(O)OC[C@H]3O[C@@H](n4cnc5c(N)ncnc54)[C@H](O)[C@@H]3O)[C@@H](O)[C@H]2O)C=CC1 [NADH, reference compound]
- % SURVIVAL (V79 cells [3]; +500 μM NADH alone): 120%
- % SURVIVAL MAWI Cells (MAWI Cells; +500 μM NADH alone): 104.6%
- % SURVIVAL V79 Cells (V79 cells [5]; +500 μM NADH alone): 94.6%
- % SURVIVAL (V79 cells [9]): 100%
